Assay results published in ChEMBL document CHEMBL5233265, “Recent advances in the design and development of formyl peptide receptor 2 (FPR2/ALX) agonists as pro-resolving agents with diverse therapeutic potential” (Eur J Med Chem, 2021).
Each block holds one molecule with its values, some of them ahead of it.

Legend:
[1] = Agonist activity at FPR in human PMNL cells assessed as increase in intracellular calcium mobilization incubated for 30 mins by Fluo-4 AM dye based fluorometer analysis; assay type: cell-based; details: 0.5 h
[2] = target: T1, fMet-Leu-Phe receptor (Homo sapiens, UniProt P21462); experiment: Agonist activity at human FPR1 transfected in HL-60 cells assessed as increase in intracellular calcium flux incubated for 30 mins by Fluo-4 AM dye based fluorometer analysis; assay type: cell-based; details: read-out: EC50
T1 sequence (P21462 whole entry): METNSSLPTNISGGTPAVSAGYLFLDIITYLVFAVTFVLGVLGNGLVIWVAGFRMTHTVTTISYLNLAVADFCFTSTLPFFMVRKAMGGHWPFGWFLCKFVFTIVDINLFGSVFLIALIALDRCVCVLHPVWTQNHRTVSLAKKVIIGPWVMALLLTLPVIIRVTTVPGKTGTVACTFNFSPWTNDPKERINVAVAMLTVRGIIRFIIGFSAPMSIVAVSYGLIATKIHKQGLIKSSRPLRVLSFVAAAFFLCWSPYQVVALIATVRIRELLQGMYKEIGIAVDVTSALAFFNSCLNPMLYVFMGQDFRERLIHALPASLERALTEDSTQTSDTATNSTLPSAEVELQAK

[3] = target: T2, N-formyl peptide receptor 2 (Homo sapiens, UniProt P25090); experiment: Agonist activity at human FPR2 transfected in HL-60 cells assessed as increase in intracellular calcium flux incubated for 30 mins by Fluo-4 AM dye based fluorometer analysis; assay type: cell-based; details: read-out: EC50
T2 sequence (P25090 whole entry): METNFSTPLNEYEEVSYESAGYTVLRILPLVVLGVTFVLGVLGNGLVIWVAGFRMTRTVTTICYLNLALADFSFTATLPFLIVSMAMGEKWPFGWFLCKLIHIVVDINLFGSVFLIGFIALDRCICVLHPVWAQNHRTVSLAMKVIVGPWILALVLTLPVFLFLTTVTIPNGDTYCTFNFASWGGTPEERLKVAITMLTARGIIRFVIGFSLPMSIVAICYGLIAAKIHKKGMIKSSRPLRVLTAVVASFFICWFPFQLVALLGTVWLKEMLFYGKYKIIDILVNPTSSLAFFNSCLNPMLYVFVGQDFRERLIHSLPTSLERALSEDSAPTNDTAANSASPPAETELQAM

[4] = system: Mus musculus; experiment: Anti-inflammatory activity against BALB/c mouse assessed as suppression ratio of LPS-induced neutrophil infiltration in lung at 1 mg/kg,po measured after 5.5 hrs by Diff-Quick staining based microscopic analysis; assay type: functional
[5] = target: T2, N-formyl peptide receptor 2; experiment: Agonist activity at human FPR2 expressed in HEK293 cells assessed as increase in calcium flux incubated for 45 mins by Fluo-4 AM dye based fluorescence assay; assay type: cell-based
[6] = system: Mus musculus; experiment: Anti-inflammatory activity against BALB/c mouse assessed as suppression ratio of LPS-induced neutrophil infiltration in lung at 3 mg/kg,po measured after 5.5 hrs by Diff-Quick staining based microscopic analysis; assay type: functional
[7] = system: Mus musculus; experiment: Neuroprotective activity against DOCA induced cardiac fibrosis mouse model assessed as reduction in left ventricular fibrosis at 1 mg/kg,po qd measured after 3 weeks; assay type: functional; design: scale not given: the % may be the effect or the level left
[8] = Agonist activity at rat FPR1 expressed in CHO-A12 cells assessed as cAMP level incubated for 1.5 hr by HTRF assay; assay type: cell-based
[9] = system: Mus musculus; experiment: Neuroprotective activity against coronary artery occlusion mouse model assessed as reduction in left ventricular chamber dilatation at 3 mg/kg,po measured after […]; assay type: functional; design: scale not given: the % may be the effect or the level left
[10] = system: HL-60; experiment: Inhibition of cell migration in human HL-60 cells incubated for 135 mins by transwell assay; assay type: functional, cell-based; details: HL-60, 2.25 h
[11] = target: T2, N-formyl peptide receptor 2; experiment: Agonist activity at human FPR2 expressed in CHO-A12 cells assessed as cAMP level incubated for 1.5 hr by HTRF assay; assay type: cell-based
[12] = Agonist activity at rat FPR2 expressed in CHO-A12 cells assessed as cAMP level incubated for 1.5 hr by HTRF assay; assay type: cell-based
[13] = system: Peritoneal macrophage; experiment: Induction of phagocytosis in C57BL6 mouse peritoneal macrophages assessed as increase in FITC signal preincubated with compound for 15 mins followed by zymosan addition and measured after 90 mins by Trypan Blue based FITC analysis
[14] = system: Mus musculus; experiment: Neuroprotective activity against angiotensin II induced cardiac fibrosis mouse model assessed as reduction in fibrosis at 3 mg/kg,po qd measured after 3 weeks; assay type: functional; design: scale not given: the % may be the effect or the level left
[15] = system: Mus musculus; experiment: Neuroprotective activity against coronary artery occlusion mouse model assessed as reduction in left ventricular chamber dilatation at 0.3 mg/kg,po measured after […]; assay type: functional; design: scale not given: the % may be the effect or the level left
[16] = target: T2, N-formyl peptide receptor 2; experiment: Agonist activity at human FPR2 transfected in HL-60 cells assessed as increase in intracellular calcium flux incubated for 30 mins by Fluo-4 AM dye based FLIPR-fluorometeric assay; assay type: cell-based
[17] = target: T3, fMet-Leu-Phe receptor (Homo sapiens) (UniProt P21462); experiment: Agonist activity at human FPR1 transfected in HL-60 cells assessed as maximal intracellular calcium flux incubated for 30 mins by Fluo-4 AM dye based FLIPR-fluorometeric assay relative to control; assay type: cell-based; details: filed as agonist
T3 sequence (whole entry): T1 sequence (P21462 whole entry)

[18] = Agonist activity at FPR in human PMNL cells assessed as increase in intracellular calcium mobilization incubated for 30 mins by Fluo-4 AM dye based FLIPR-fluorometeric assay; assay type: cell-based; details: 0.5 h
[19] = system: PMNL; experiment: Agonist activity at FPR in human PMNL cells assessed as maximal intracellular calcium mobilization incubated for 30 mins by Fluo-4 AM dye based FLIPR-fluorometeric assay relative to control; assay type: cell-based; details: filed as agonist
[20] = target: T1, fMet-Leu-Phe receptor; experiment: Agonist activity at human FPR1 transfected in HL-60 cells assessed as increase in intracellular calcium flux incubated for 30 mins by Fluo-4 AM dye based FLIPR-fluorometeric assay; assay type: cell-based
[21] = target: T4, N-formyl peptide receptor 2 (Homo sapiens) (UniProt P25090); experiment: Agonist activity at human FPR2 transfected in HL-60 cells assessed as maximal intracellular calcium flux incubated for 30 mins by Fluo-4 AM dye based FLIPR-fluorometeric assay relative to control; assay type: cell-based; details: filed as agonist
T4 sequence (whole entry): T2 sequence (P25090 whole entry)

[22] = target: T3, fMet-Leu-Phe receptor (Homo sapiens); experiment: Agonist activity at human recombinant FPR1 stably transfected in Flp-In-CHO cells assessed as ERK1/2 phosphorylation at 10 uM incubated for 1 hr by Alphascreen fluorescence assay relative to control; assay type: cell-based; details: filed as agonist
[23] = target: T2, N-formyl peptide receptor 2; experiment: Agonist activity at human recombinant FPR2 stably transfected in Flp-In-CHO cells assessed as increase in intracellular calcium mobilization incubated for 1 hr by Fluo-4 AM dye based fluorescence plate reader assay; assay type: cell-based
[24] = target: T1, fMet-Leu-Phe receptor; experiment: Agonist activity at human recombinant FPR1 stably transfected in Flp-In-CHO cells assessed as increase in intracellular calcium mobilization incubated for 1 hr by Fluo-4 AM dye based fluorescence plate reader assay; assay type: cell-based
[25] = target: T4, N-formyl peptide receptor 2 (Homo sapiens); experiment: Agonist activity at human recombinant FPR2 stably transfected in Flp-In-CHO cells assessed as ERK1/2 phosphorylation at 10 uM incubated for 1 hr by Alphascreen fluorescence assay relative to control; assay type: cell-based
[26] = target: T4, N-formyl peptide receptor 2 (Homo sapiens); experiment: Agonist activity at human recombinant FPR2 stably transfected in Flp-In-CHO cells assessed as maximal intracellular calcium mobilization at 10 uM incubated for 1 hr by Fluo-4 AM dye based fluorescence plate reader assay relative to control; assay type: cell-based
[27] = target: T2, N-formyl peptide receptor 2; experiment: Agonist activity at human recombinant FPR2 stably transfected in Flp-In-CHO cells assessed as ERK1/2 phosphorylation incubated for 1 hr by Alphascreen fluorescence assay; assay type: cell-based
[28] = target: T1, fMet-Leu-Phe receptor; experiment: Agonist activity at human recombinant FPR1 stably transfected in Flp-In-CHO cells assessed as ERK1/2 phosphorylation incubated for 1 hr by Alphascreen fluorescence assay; assay type: cell-based
[29] = target: T3, fMet-Leu-Phe receptor (Homo sapiens); experiment: Agonist activity at human recombinant FPR1 stably transfected in Flp-In-CHO cells assessed as maximal intracellular calcium mobilization at 10 uM incubated for 1 hr by Fluo-4 AM dye based fluorescence plate reader assay relative to control; assay type: cell-based
[30] = target: T3, fMet-Leu-Phe receptor (Homo sapiens); experiment: Agonist activity at human FPR1 transfected in HL-60 cells assessed as maximal intracellular calcium flux incubated for 30 mins by Fluo-4 AM dye based fluorometer analysis relative to control; assay type: cell-based; details: filed as agonist
[31] = target: T4, N-formyl peptide receptor 2 (Homo sapiens); experiment: Agonist activity at human FPR2 transfected in HL-60 cells assessed as maximal intracellular calcium flux incubated for 30 mins by Fluo-4 AM dye based fluorometer analysis relative to control; assay type: cell-based; details: filed as agonist
[32] = target: T2, N-formyl peptide receptor 2; experiment: Agonist activity at FPR2 (unknown origin) assessed as increase in calcium flux

SMILES: COc1cccc(-c2cc(C#N)c(C)n(CC(=O)Nc3ccc(Br)cc3)c2=O)c1
EC50 [1]: 390 nM
EC50 [2]: 1600 nM
EC50 [3]: 120 nM

SMILES: COc1ccc(NC(=O)N[C@@H]2/C(=N/OCCO)NC[C@H]2c2c(F)cc(OC)cc2F)cc1
Ratio [4]: 96.8%
EC50 [5]: 0.27 nM

SMILES: N/C(=N\C(=O)CCO)[C@H](Cc1ccc(Cl)cc1)NC(=O)Nc1ccc(Cl)cc1
Ratio [6]: 86%

SMILES: COc1cc(F)c([C@@H]2CNC(=O)[C@H]2NC(=O)Nc2ccc(C)cc2)c(F)c1
Ratio [6]: 57%
EC50 [5]: 0.86 nM

SMILES: COc1cc(F)c([C@@H]2CNC(=O)[C@H]2NC(=O)Nc2ccccc2)c(F)c1 [BMS-986235]
Activity [7]: 50%
EC50 [8]: 1.5 nM
Activity [9]: 24%
IC50 [10]: 57 nM
EC50 [11]: 1250 nM
EC50 [12]: 720 nM
EC50 [13]: 2 nM
Activity [14]: 89%
Activity [15]: 26%

SMILES: COc1cccc(Cc2c(C)c(C)nn(CC(=O)Nc3ccc(Br)cc3)c2=O)c1
Emax [17]: 85%
EC50 [18]: 19 nM
Emax [19]: 85%
Emax [21]: 80%

SMILES: COc1cccc(Cc2cc(C)nn(C(C)C(=O)Nc3ccc(Cl)cc3)c2=O)c1 (racemic)
Emax [22]: 70%
EC50 [23]: > 10000 nM
EC50 [24]: 7940 nM
Emax ([25]; filed as agonist): 82%
Emax [26]: 6%
EC50 [27]: 1580 nM
EC50 [28]: 1000 nM
Emax [29]: 22%

SMILES: N#Cc1ccc(NC(=O)N[C@@H]2C(=O)NC[C@H]2c2cc3c(cc2F)OCC3)cc1
Ratio [4]: 99.2%

SMILES: COc1cc(F)c([C@@H]2CN3CCON=C3[C@H]2NC(=O)Nc2ccc(F)cc2)c(F)c1
EC50 [32]: 0.02 nM

SMILES: COc1cccc(Cc2cc(C)nn([C@@H](C)C(=O)Nc3ccc(Cl)cc3)c2=O)c1
Emax [22]: 78%
EC50 [23]: > 10000 nM
EC50 [24]: > 10000 nM
Emax [25]: 8%
Emax [26]: 4%
EC50 [27]: > 10000 nM
EC50 [28]: 1260 nM
Emax [29]: 16%

More lines, main results first:

EC50 ([16]; hl-60): 13 nM
Emax [17]: 60%
EC50 [18]: 270 nM
EC50 ([20]; read-out: EC50): 900 nM
Emax [21]: 95%
SMILES: COc1ccc(Cc2c(C)c(C)nn(CC(=O)Nc3ccc(Br)cc3)c2=O)cc1
Emax [19]: 140%

EC50 [5]: 0.17 nM
SMILES: COc1ccc(C[C@H](NC(=O)Nc2ccc(Cl)cc2)c2noc(CCO)n2)cc1
Ratio [6]: 94%

Emax [30]: 95%
EC50 [2]: 1500 nM
Emax [31]: 130%
EC50 [3]: 2900 nM
SMILES: COc1ccc(NC(=O)N[C@@H](Cc2ccc(O)cc2)C(=O)NCC2(c3ccccc3)CC2)cc1

EC50 [16]: 150 nM
EC50 [18]: 200 nM
EC50 [20]: Not Active
Emax [21]: 115%
SMILES: COc1cccc(Cc2c(-c3ccccc3)c(C)nn(CC(=O)Nc3ccc(Br)cc3)c2=O)c1
Emax [19]: 110%

EC50 [5]: 0.13 nM
SMILES: CCN1C[C@@H](c2ccc(OC)cc2)[C@H](NC(=O)Nc2ccc(F)cc2)C1=O
Ratio [6]: 97.4%

EC50 [1]: 4500 nM
EC50 [2]: 12500 nM
EC50 [3]: 8900 nM
SMILES: O=C(Cn1c(=O)[nH]cc(-c2ccccc2)c1=O)Nc1ccc(Br)cc1

Emax [30]: 55%
EC50 ([2]; hl-60): 5100 nM
Emax [31]: 90%
EC50 ([3]; hl-60): 410 nM
SMILES: COc1ccc(NC(=O)N[C@H](Cc2ccc(O)cc2)C(=O)NCC2(c3ccccc3)CC2)cc1

Emax [22]: 82%
EC50 [23]: > 10000 nM
EC50 [24]: 3980 nM
Emax ([25]; filed as agonist): 85%
Emax [26]: 8%
EC50 [27]: 1260 nM
EC50 [28]: 794 nM
Emax [29]: 38%
SMILES: COc1cccc(Cc2cc(C)nn([C@H](C)C(=O)Nc3ccc(Cl)cc3)c2=O)c1
